Data from patent publication US20040235922A1, “Compositions and methods for inducing adipose tissue cell death” (priority 2003, published 2004).
Entries after “also recorded” stand apart in the source; their conditions may differ.

Tests used:
[1] = test system: Epi/Par fat pads (white adipose tissue); experiment: Adipose tissue apoptosis assay, % DNA fragmentation (Example 1); assay type: in vivo, mice; conditions: 21 days
Protocol: Animals: Five week old male (n=20) and female (n=20) ICR mice (Harlan Research Laboratories, Indianapolis, Ind.) were allowed to acclimate for one week prior to the experiment start date. Animals were housed singly in suspended wire cages and were provided ground rodent chow (ProLab® RMH 2500; Purina Mills, St. Louis, Mo.) and water ad libitum. Ambient room temperature was maintained and the light/dark cycle was 0600/1800 hours, respectively. Animals were cared for in accordance with the Guide for the Care and Use of Laboratory Animals (Institute of Laboratory Animal Resources Commission on Life Sciences National Research Council. Guide for the Care and Use of Laboratory Animals. National Academy of Sciences, 1996). Prior to the start of the study, animals were briefly anesthetized with isofluorane and an IPPT-200 transponder (programmable ID and temperature, BMDS, Seaford, Del.) was implanted subcutaneously between the scapulae.
Materials: Test articles included clenbuterol (Sigma Chemical Company, St. Louis, Mo., item # C5423) and ractopamine hydrochloride—Paylean® 9 (Elanco Animal Health, Indianapolis, Ind.). Clenbuterol is available as a pure product, and ractopamine is readily available as a type A medicated article. Paylean® 9 contains about 20 g ractopamine hydrochloride per kilogram in a ground corncob base. In order to achieve doses of 200 and 800 ppm it was necessary to add about […] of product per kilogram of diet. Control and clenbuterol diets were prepared with about 80 g of alphacel, which is a diluent used to mimic the effect of the corncob in the ractopamine product. The dose of clenbuterol used in this experiment was similar to those used in previous experiments with mice (Agbenyega E T, and Wareham A C. Effect of clenbuterol on skeletal muscle atrophy in mice induced by the glucocorticoid dexamethasone. Comp Biochem Physiol Comp Physiol 1992;102:141-145, Rothwell N. J., and Stock M J. Modification of body composition by clenbuterol in normal and dystrophic (mdx) mice. Biosci Rep 1985;5:755-760, Hyltander A, Svaninger G, and Lundholm K. The effect of clenbuterol on body composition in spontaneously eating tumour-bearing mice. Biosci Rep 1993;13:325-331, Hayes A, and Williams DA. Long-term clenbuterol administration alters the isometric contractile properties of skeletal muscle from normal and dystrophin-deficient mdx mice. Clin Exp Pharmacol Physiol 1994;21:757-765, Dupont-Versteegden EE. Exercise and clenbuterol as strategies to decrease the progression of muscular dystrophy in mdx mice. J Appl Physiol 1996;80:734-741).
DNA Isolation and Apoptosis Assay: Only the Epi and Par fat pads had sufficient tissue for the apoptosis assay. Apoptosis was assayed in two ways: DNA isolated from fat tissue was separated into two fractions: fragmented and genomic DNA. First, the fragmented DNA was run on an agarose gel in order to identify a ladder pattern of internucleosomal DNA degradation that is characteristic of apoptosis. Second, apoptosis was quantified as the ratio of fragmented- to total-DNA, multiplied by 100. Briefly, approximately 50 mg of the Epi or Par white adipose tissue was homogenized in lysis buffer (10 mM Tris-HCL, pH 8.0, 10 mM EDTA, pH 8.0; 0.5% Triton X-100) and centrifuged at 14,000× g for 15 min to separate fragmented DNA from genomic DNA. The supernatant, containing fragmented DNA, was extracted with phenol-chloroform-isoamyl alcohol (25:24:1), and the DNA was precipitated by adding polyacryl carrier (Molecular Research Center, Inc., Cincinnati, Ohio) and ethanol. Genomic (non-fragmented) DNA was extracted from the pellet with DNAzol and the polyacryl carrier. DNA in each fraction was quantified by the PicoGreen method (Molecular Probes, Inc., Eugene, Oreg.) and fluorescence was measured using a SpectroMax Gemini (Molecular Devices).
Statistical Analysis: Analysis of variance (SAS) was used to determine significance of treatment and gender effects. […]

[2] = Body composition analysis by PIXImus densitometry in WT and GDF-8 KO mice (Example 2); assay type: in vivo; conditions: 200 ppm in diet, 21 days
serum leptin = experiment: Serum leptin concentration in WT and GDF-8 KO mice (Example 2); assay type: in vivo; conditions: 200 ppm in diet
Protocol: Animals: Twelve-week old male (n=10) and female (n=10) GDF-8 (−/−) knockout mice and male (n=10) and female (n=10) GDF-8 (+/+) WT mice were used in the study. GDF-8 knockout mice, which were derived from the 129/SvJ mouse strain, were originally obtained from MetaMorphix Inc. and were bred in-house for the study. Mice were housed singly in suspended wire cages in a room maintained at 22±1 C and with a 12:12 hour light/dark cycle. Mice were provided ground rodent chow (ProLab® RMH 2500; Purina Mills, St. Louis, Mo.) and water ad libitum. Mice were cared for in accordance with the Guide for the Care and Use of Laboratory Animals.
Materials: Clenbuterol (Sigma Chemical Company, St. Louis, Mo., item# C5423), was thoroughly mixed into the ground rodent chow to provide a 200 ppm concentration.
Daily Observations: Food intake was measured daily, and body weight was measured on days 0, 3, 7, 10, 14, 17, 20, and 21 at approximately 1430 h during the treatment period. At 15 weeks of age (day 21), a final body weight measurement was obtained approximately one hour prior to euthanasia, and mice were sacrificed by decapitation following CO2 asphyxiation.

mouse adipocytes = conditions: in vitro; cited from earlier work
[3] = test system: female and male WT and GDF-8 KO mice; experiment: Adipose, muscle and heart tissue weights in WT and GDF-8 KO mice (Example 2); conditions: 200 ppm in diet, 21 days
[4] = WT and GDF-8 KO mice, Mean ± SEM

Structure (SMILES): CC(C)(C)NCC(O)c1cc(Cl)c(N)c(Cl)c1 (centres unmarked) [Clenbuterol, clenbuterol]
- Percent DNA fragmentation (apoptosis) in the Epi/Par fat pad compared to control ([1]; 200 ppm clenbuterol, 800 ppm ractopamine in diet, p<0.05, listed as clenbuterol): increased; also recorded: significant increase in apoptosis
- Adipose tissue apoptosis (% DNA fragmentation) in Epi/Par fat pads ([1]; 200 ppm in diet, mice, control 1.7±0.4%): 5.2 ± 1.1%
- DNA fragmentation in retroperitoneal or inguinal fat pads ([1]; diet, mice): Neither clenbuterol nor ractopamine treatments increased
- % Fat [2, 4]: 15.7 ± 1.0%
- Bone Mineral Content [2, 4]: 0.52 ± 0.02 g
- Bone Mineral Density [2, 4]: 0.06 ± 0.001 g
- Fat [2, 4]: 4.1 ± 0.2 g
- Lean [2, 4]: 22.7 ± 1.1 g
- Effect on BMD, BMC, area, lean weight, fat weight, or fat % ([2]; main effects): no effect
- Effect on serum leptin concentrations (serum leptin): did not significantly affect; also recorded: not affected
- Serum Leptin Concentration (serum leptin; 20 days, Mean ± SEM): 3.98 ± 0.49 ng/mL
- Insulin binding to mouse adipocytes (mouse adipocytes): decreased
- EPI/PAR (and RP) fat pad weights compared to control [3]: decreased; also recorded: reduced
- Heart weight compared to control [3]: increased
- Weights of dissected skeletal muscles [3]: did not affect; also recorded: no effect
- EPI/PAR (and RP) fat pad weights compared to control ([3]; listed as clenbuterol): reduced; also recorded: smaller
- Heart weight compared to control ([3]; listed as clenbuterol): significantly increased
